Converted amounts (≈) assume the structure as drawn.
Settings: for aqueous solubility: pH 6.8

Structure (SMILES) | MDR1-MDCK efflux ratio | intrinsic clearance, human liver microsomes | intrinsic clearance, rat liver microsomes | aqueous solubility | fraction unbound, human plasma | fraction unbound, rat plasma
Cc1cc(Nc2ccccn2)cc(C2CCCN(CC(=O)Nc3ncc(C)s3)C2)n1 (stereo not given) | 36.3 | 59.6 mL/min/kg | 956 mL/min/kg | 65.5 µg/mL (≈ 155 µM) |  | 
CCOc1ccc(C(=O)Cn2c(=O)n(-c3ccc(F)cc3)c3nc(C)nc(C(N)=O)c32)cc1 | 0.926 |  |  | 0.39 µg/mL (≈ 0.868 µM) |  | 
CCc1nc(COc2ccccc2Br)no1 |  |  |  | 21.9 µg/mL (≈ 77.5 µM) |  | 
COc1ccc(Oc2cc(C)c(-c3csc(NC(=O)c4ccncc4)n3)c(C)c2)cc1 |  |  |  | 0.31 µg/mL (≈ 0.718 µM) |  | 
Cc1nc(C)c(CNc2ncnn2C)s1 | 4 | ≤ 4.74 mL/min/kg | 22.5 mL/min/kg |  |  | 
NCc1nnc(CCc2ccccc2)o1 |  | ≤ 4.74 mL/min/kg | ≤ 10.7 mL/min/kg |  |  | 
C[C@H]1NC(=O)N(CCc2nc(C(F)(F)F)cs2)C1=O | 1.6 | 5.83 mL/min/kg | 24.8 mL/min/kg |  |  | 
COc1ccc(C(=O)c2ccc(C)cc2)c(OC)c1 | 0.46 | 102 mL/min/kg | 3010 mL/min/kg |  |  | 
COc1ccc(CNc2ncc(-c3ccc4c(c3)OCO4)n2C)c(OC)c1 | 1.48 | 202 mL/min/kg | 1590 mL/min/kg | 42.5 µg/mL (≈ 116 µM) |  | 
C=CC[C@]1(O)CC[C@H]2[C@@H]3CCC4=CC(=O)CCC4=C3C=C[C@@]21C | 0.761 | 58.2 mL/min/kg | 592 mL/min/kg |  |  | 
Cc1ncc(CN(C)c2nnc(C)c(C)c2C#N)s1 |  |  |  | 28.6 µg/mL (≈ 105 µM) |  | 
CN(C)S(=O)(=O)Nc1ccc2sncc2c1 |  |  |  | 53.6 µg/mL (≈ 208 µM) |  | 
Cc1ccc(NC(=O)CN2CCCN(c3ccc(C(F)(F)F)cn3)CC2)c(F)c1 | 1.09 | 141 mL/min/kg | 643 mL/min/kg | 24.6 µg/mL (≈ 59.9 µM) |  | 
Cc1noc(NCc2c(C)nn(C)c2C)n1 | 1.34 | ≤ 4.74 mL/min/kg | ≤ 10.7 mL/min/kg |  |  | 
COc1ccc(-c2c(C)n[nH]c2C)cn1 | 0.678 | ≤ 4.74 mL/min/kg | 52.2 mL/min/kg | 14.7 µg/mL (≈ 72.4 µM) |  | 
COc1ccc(-c2noc([C@@H]3CCCN3Cc3ccccc3)n2)cn1 | 0.592 | 89.6 mL/min/kg | 1150 mL/min/kg | 25.5 µg/mL (≈ 75.8 µM) |  | 
Cc1nnc2ncc(-c3cccc4ccnn34)cn12 | 0.468 | 9.33 mL/min/kg | 39.7 mL/min/kg |  |  | 
O=C(c1nccc2ccccc12)N1CCC(COc2ccccn2)CC1 |  | 42.1 mL/min/kg | 5410 mL/min/kg |  |  | 

Structure (SMILES) | MDR1-MDCK efflux ratio | intrinsic clearance, human liver microsomes | intrinsic clearance, rat liver microsomes | aqueous solubility | fraction unbound, human plasma | fraction unbound, rat plasma
Cc1ccsc1-c1nc(CN(C)CCc2cn[nH]c2)c(C)o1 |  | 185 mL/min/kg | 1210 mL/min/kg | 55.7 µg/mL (≈ 176 µM) |  | 
NCc1cccc(C(=O)N2CCCC2)c1 | 3.58 | ≤ 4.74 mL/min/kg | ≤ 10.7 mL/min/kg | 25.4 µg/mL (≈ 124 µM) |  | 
N#CCCN(C(=O)c1sccc1C#N)C12CC3CC(CC(C3)C1)C2 | 1.16 | 320 mL/min/kg | 1600 mL/min/kg | 7.8 µg/mL (≈ 23 µM) |  | 
CCN(C(=O)N1CCC(OC2CCOCC2)CC1)C(C)C | 0.763 | 21.6 mL/min/kg | 155 mL/min/kg | 56.1 µg/mL (≈ 188 µM) |  | 
Cn1c(=O)n(Cc2cccc(OC(F)F)c2)c2cnccc21 | 1.34 | 10.4 mL/min/kg | 209 mL/min/kg | 49.1 µg/mL (≈ 161 µM) |  | 
O=C1NCCCCC1NC(=O)N1CCc2sccc2C1 (stereo not given) | 4.48 | 4.84 mL/min/kg | 47 mL/min/kg | 49.6 µg/mL (≈ 169 µM) |  | 
O=S(=O)(NCC1C2CC3CC(C2)CC1C3)C1CCOCC1 (stereo not given) |  |  |  | 58.2 µg/mL (≈ 186 µM) |  | 
CC(C)c1nnc(CN2CCN(c3ccccc3Cl)CC2)o1 | 0.652 | 91 mL/min/kg | 869 mL/min/kg | 50.7 µg/mL (≈ 158 µM) |  | 
O=C(c1ccc(Cl)cc1)N1CCC(c2nnc3n2CCCC3)CC1 | 128 | ≤ 4.74 mL/min/kg | ≤ 10.7 mL/min/kg |  |  | 
Cn1cc(CN2CCN(c3ccccc3O)CC2)c(-c2ccncc2)n1 | 2.69 | 27.3 mL/min/kg | 374 mL/min/kg | 33.2 µg/mL (≈ 95 µM) |  | 
C[C@@H](CN1CCC2(CC1)C(=O)NCN2c1cccc(F)c1)NC(=O)c1ccc(Br)cc1 |  | 88.8 mL/min/kg | 312 mL/min/kg | 3.85 µg/mL (≈ 7.87 µM) |  | 
CCOc1cc(CN2CCc3c(N)nc(N4CCCC4)nc3C2)ccc1OC | 16.6 | 26.6 mL/min/kg | 280 mL/min/kg |  |  | 
O=C(NCCc1ccc2c(c1)OCO2)C1CCCC1 | 0.69 | 27.6 mL/min/kg | 600 mL/min/kg | 42.1 µg/mL (≈ 161 µM) |  | 
CNc1cc(Nc2cccn(-c3ccccn3)c2=O)nn2c(C(=O)N[C@@H]3C[C@@H]3F)cnc12 | 31.1 | ≤ 4.74 mL/min/kg | 24.7 mL/min/kg | 1.23 µg/mL (≈ 2.83 µM) | 0.098 | 0.033
CC(C)(C)c1cc(NS(=O)(=O)c2c(Cl)cccc2Cl)cc(C(C)(C)C)c1 |  | 89.6 mL/min/kg | 1030 mL/min/kg |  |  | 
COCc1ccc(-c2nc3c([nH]2)c(C)nn3C2CCCCC2)o1 |  | 51.8 mL/min/kg | 485 mL/min/kg | 38 µg/mL (≈ 121 µM) |  | 
CC(C)c1c(-c2ccccc2)[n+]([O-])c2c([n+]1[O-])CCC2 |  | ≤ 4.74 mL/min/kg | 14.3 mL/min/kg |  |  | 
COc1ccc(NC(=O)C(C)N2CCCN(c3ccc(C(F)(F)F)cn3)CC2)cc1 (stereo not given) | 0.969 | 391 mL/min/kg | 1930 mL/min/kg | 19.1 µg/mL (≈ 45.1 µM) |  | 

Continued, values first:

MDR1-MDCK efflux ratio | intrinsic clearance, human liver microsomes | intrinsic clearance, rat liver microsomes | aqueous solubility | fraction unbound, human plasma | fraction unbound, rat plasma | Structure (SMILES)
0.495 | 679 mL/min/kg | 2200 mL/min/kg |  |  |  | O=C(OCC1CCSCC1)c1cccc(-n2cccn2)n1
0.664 | 6.72 mL/min/kg | 34.6 mL/min/kg | 37.8 µg/mL (≈ 163 µM) |  |  | Cc1ccc(C(=O)Nc2ncccc2C)s1
1.6 | 74.6 mL/min/kg | 747 mL/min/kg | 63.3 µg/mL (≈ 206 µM) |  |  | O=C(CSC1CCCC1)N1CCC(Cn2cccn2)CC1
0.723 | ≤ 4.74 mL/min/kg | 117 mL/min/kg | 31.7 µg/mL (≈ 124 µM) |  |  | O=C(NCc1cnn(-c2ccccc2)c1)C1CCC1
4.93 | 4.92 mL/min/kg | 100 mL/min/kg |  |  |  | Cc1ccccc1C(=O)N1CCC(O)(Cn2ccnc2C)CC1
 |  |  | 34.3 µg/mL (≈ 171 µM) |  |  | CC(C)(C)OC(=O)N1CCNC(=O)C1
 | 13 mL/min/kg | 188 mL/min/kg |  |  |  | COCC(C)(C)CNC(=O)C1(Cn2cccn2)CC1
8.59 | 78.1 mL/min/kg | 442 mL/min/kg |  |  |  | CC(=O)N(C)[C@H]1CC2(CCN(C(=O)COc3cc(C)c(Cl)c(C)c3)CC2)OC[C@]1(C)O
6.7 | 27.6 mL/min/kg | 289 mL/min/kg | 49.4 µg/mL (≈ 139 µM) |  |  | CCCn1ncc2ccc(C3CCCN(CC(=O)N4CCCC4)C3)nc21 (stereo not given)
17.6 | 6.26 mL/min/kg | 97.3 mL/min/kg | 32.2 µg/mL (≈ 103 µM) |  |  | COC(=O)[C@@H]1Cc2ncn(Cc3ccccc3)c2CN1C(C)=O
0.657 | 16.2 mL/min/kg | 404 mL/min/kg | 36.8 µg/mL (≈ 134 µM) |  |  | Cc1cccc(NC(=O)CN(C)c2ncccc2F)n1
2.28 | 13.2 mL/min/kg | 107 mL/min/kg | 50.9 µg/mL (≈ 139 µM) |  |  | CN(CCN1CCOC1=O)C(=O)c1cc2cc(Br)ccc2o1
2.31 | 15 mL/min/kg | 501 mL/min/kg |  |  |  | CCOCC(=O)Nc1cccc(CN2CCCC2)c1
 | ≤ 4.74 mL/min/kg | ≤ 10.7 mL/min/kg |  |  |  | O=C1NC2(CCC2)C(=O)N1Cc1ccon1
1.58 | 916 mL/min/kg | 5800 mL/min/kg | 61.8 µg/mL (≈ 180 µM) |  |  | Cc1oc(C)c(C(=O)N(C)Cc2ccccc2N2CCOCC2)c1C
0.754 | 18.6 mL/min/kg | 183 mL/min/kg | 57.7 µg/mL (≈ 193 µM) |  |  | COc1cccc(CN(C)c2ncnc3c2CN(C)CC3)c1
0.66 | ≤ 4.74 mL/min/kg | 142 mL/min/kg | 25.1 µg/mL (≈ 96.7 µM) |  |  | OC1(Cn2nnc(-c3cccnc3)n2)CCCCC1
35.1 | 50.6 mL/min/kg | 390 mL/min/kg |  |  |  | CNCc1cc(N(C)C)nc(C2CCCN2C(=O)CCc2c[nH]c3ccccc23)n1 (stereo not given)
0.512 | 13.4 mL/min/kg | 266 mL/min/kg | 81.5 µg/mL (≈ 242 µM) |  |  | COc1ccc(C2(NCc3ccc(N4CCCC4=O)cc3)CC2)cc1
0.662 | ≤ 4.74 mL/min/kg | 370 mL/min/kg |  |  |  | COCc1nn(CCCN2CCCCC2)c(=O)o1
1.39 | 12.6 mL/min/kg | 1170 mL/min/kg |  |  |  | O=c1c(CO)cc2cc3c(cc2n1Cc1ccccn1)CCC3
13.6 | 6.04 mL/min/kg | 42.3 mL/min/kg | 25.8 µg/mL (≈ 83.4 µM) |  |  | CC(=O)NC1CCN(Cc2cccc(-c3cccnc3)c2)CC1
 | ≤ 4.74 mL/min/kg | ≤ 10.7 mL/min/kg | 79.1 µg/mL (≈ 343 µM) |  |  | NCCn1cc(NC(=O)c2ccccc2)cn1
0.629 | 182 mL/min/kg | 298 mL/min/kg |  |  |  | COc1nccnc1N1CCC(C(=O)Nc2cccc(F)c2)CC1
